From PubChem BioAssay (NCI)
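Where inhibition never reached the appropriate level, the endpoint shown equals the highest concentration tested. Otherwise, values were interpolated linearly from a five-concentration, 48-hour dose response in 96-well plates. The concentration for 50% growth inhibition is given as GI50. The concentration for full growth arrest is given as TGI.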

Tests used:
Assay in all cases: NCI-60 cell line screen, 48 h
HS 578T breast = test system: HS 578T breast
MDA-MB-468 breast = test system: MDA-MB-468 breast
UO-31 renal = test system: UO-31 renal
OVCAR-8 ovarian = test system: OVCAR-8 ovarian
MCF7 breast = test system: MCF7 breast
IGROV1 ovarian = test system: IGROV1 ovarian
M14 melanoma = test system: M14 melanoma
A549 NSCLC = test system: A549 NSCLC
NCI-H522 lung = test system: NCI-H522 lung
SR leukemia = test system: SR leukemia
HOP-92 NSCLC = test system: HOP-92 NSCLC
RPMI-8226 leukemia = test system: RPMI-8226 leukemia
NCI-H460 lung = test system: NCI-H460 lung
T-47D breast = test system: T-47D breast
OVCAR-4 ovarian = test system: OVCAR-4 ovarian
CCRF-CEM leukemia = test system: CCRF-CEM leukemia
SK-MEL-5 melanoma = test system: SK-MEL-5 melanoma
SNB-19 CNS = test system: SNB-19 CNS
786-0 renal = test system: 786-0 renal
EKVX NSCLC = test system: EKVX NSCLC
MALME-3M melanoma = test system: MALME-3M melanoma
NCI-H23 lung = test system: NCI-H23 lung
TK-10 renal = test system: TK-10 renal
MDA-MB-435 = test system: MDA-MB-435
HOP-62 NSCLC = test system: HOP-62 NSCLC
SF-295 CNS = test system: SF-295 CNS
SF-539 CNS = test system: SF-539 CNS
SK-MEL-2 melanoma = test system: SK-MEL-2 melanoma
LOX IMVI melanoma = test system: LOX IMVI melanoma
BT-549 breast = test system: BT-549 breast
SN12C renal = test system: SN12C renal
HL-60(TB) leukemia = test system: HL-60(TB) leukemia
K-562 leukemia = test system: K-562 leukemia
UACC-257 melanoma = test system: UACC-257 melanoma
HT29 colon = test system: HT29 colon
SF-268 CNS = test system: SF-268 CNS
OVCAR-3 ovarian = test system: OVCAR-3 ovarian
U251 CNS = test system: U251 CNS
RXF 393 renal = test system: RXF 393 renal
DU-145 prostate = test system: DU-145 prostate
COLO 205 colon = test system: COLO 205 colon
CAKI-1 renal = test system: CAKI-1 renal
A498 renal = test system: A498 renal
MDA-MB-231 breast = test system: MDA-MB-231 breast
NCI/ADR-RES ovarian = test system: NCI/ADR-RES ovarian
SK-OV-3 ovarian = test system: SK-OV-3 ovarian
ACHN renal = test system: ACHN renal
HCT-116 colon = test system: HCT-116 colon
SNB-75 CNS = test system: SNB-75 CNS
HCT-15 colon = test system: HCT-15 colon
OVCAR-5 ovarian = test system: OVCAR-5 ovarian
KM12 colon = test system: KM12 colon
NCI-H226 lung = test system: NCI-H226 lung
MOLT-4 leukemia = test system: MOLT-4 leukemia

COc1ccc2[nH]c(O)c(N=Nc3nc(-c4ccc(Cl)cc4)cs3)c2c1
GI50 (HS 578T breast): 4.54 µM
TGI (HS 578T breast): 99.7 µM
GI50 (MDA-MB-468 breast): 1.45 µM
TGI (MDA-MB-468 breast): 3.24 µM
GI50 (UO-31 renal): 3.3 µM
TGI (UO-31 renal): 16.3 µM
GI50 (OVCAR-8 ovarian): 1.86 µM
TGI (OVCAR-8 ovarian): 3.71 µM
GI50 (MCF7 breast): 2.53 µM
TGI (MCF7 breast): 16.7 µM
GI50 (IGROV1 ovarian): 4.51 µM
TGI (IGROV1 ovarian): 60.8 µM
GI50 (M14 melanoma): 1.99 µM
TGI (M14 melanoma): 5.29 µM
GI50 (A549 NSCLC): 2.08 µM
TGI (A549 NSCLC): 5.09 µM
GI50 (NCI-H522 lung): 2.09 µM
TGI (NCI-H522 lung): 6.38 µM
GI50 (SR leukemia): 4.69 µM
TGI (SR leukemia): > 100 µM
GI50 (HOP-92 NSCLC): 1.92 µM
TGI (HOP-92 NSCLC): 4.88 µM
GI50 (RPMI-8226 leukemia): 3.91 µM
TGI (RPMI-8226 leukemia): > 100 µM
GI50 (NCI-H460 lung): 2.68 µM
TGI (NCI-H460 lung): 6.25 µM
GI50 (T-47D breast): 1.83 µM
TGI (T-47D breast): 5.97 µM
GI50 (OVCAR-4 ovarian): 1.83 µM
TGI (OVCAR-4 ovarian): 3.54 µM
GI50 (CCRF-CEM leukemia): 4.1 µM
TGI (CCRF-CEM leukemia): > 100 µM
GI50 (SK-MEL-5 melanoma): 4.1 µM
TGI (SK-MEL-5 melanoma): 19.4 µM
GI50 (SNB-19 CNS): 4.56 µM
TGI (SNB-19 CNS): 38.3 µM
GI50 (786-0 renal): 1.6 µM
TGI (786-0 renal): 3.09 µM
GI50 (EKVX NSCLC): 2.7 µM
TGI (EKVX NSCLC): 21.4 µM
GI50 (MALME-3M melanoma): 1.74 µM
TGI (MALME-3M melanoma): 3.37 µM
GI50 (NCI-H23 lung): 2.12 µM
TGI (NCI-H23 lung): 5.62 µM
GI50 (TK-10 renal): 9.16 µM
TGI (TK-10 renal): 32.3 µM
GI50 (MDA-MB-435): 5.86 µM
TGI (MDA-MB-435): > 100 µM
GI50 (HOP-62 NSCLC): 2.61 µM
TGI (HOP-62 NSCLC): 9.06 µM
GI50 (SF-295 CNS): 5.01 µM
TGI (SF-295 CNS): 20.6 µM
GI50 (SF-539 CNS): 1.98 µM
TGI (SF-539 CNS): 4.22 µM
GI50 (SK-MEL-2 melanoma): 3.14 µM
TGI (SK-MEL-2 melanoma): 34.4 µM
GI50 (LOX IMVI melanoma): 1.9 µM
TGI (LOX IMVI melanoma): 4.08 µM
GI50 (BT-549 breast): 3.21 µM
TGI (BT-549 breast): 28.3 µM
GI50 (SN12C renal): 1.93 µM
TGI (SN12C renal): 4.42 µM
GI50 (HL-60(TB) leukemia): > 100 µM
TGI (HL-60(TB) leukemia): > 100 µM
GI50 (K-562 leukemia): 3.49 µM
TGI (K-562 leukemia): > 100 µM
GI50 (UACC-257 melanoma): 6.52 µM
TGI (UACC-257 melanoma): > 100 µM
GI50 (HT29 colon): 3.52 µM
TGI (HT29 colon): 50.8 µM
GI50 (SF-268 CNS): 4.41 µM
TGI (SF-268 CNS): > 100 µM
GI50 (OVCAR-3 ovarian): 1.81 µM
TGI (OVCAR-3 ovarian): 3.53 µM
GI50 (U251 CNS): 2.06 µM
TGI (U251 CNS): 4.18 µM
GI50 (RXF 393 renal): 1.67 µM
TGI (RXF 393 renal): 3.29 µM
GI50 (DU-145 prostate): 3.61 µM
TGI (DU-145 prostate): 30.9 µM
GI50 (COLO 205 colon): 3.1 µM
TGI (COLO 205 colon): > 100 µM
GI50 (CAKI-1 renal): 6.7 µM
TGI (CAKI-1 renal): 30.6 µM
GI50 (A498 renal): 2.22 µM
TGI (A498 renal): 4.94 µM
GI50 (MDA-MB-231 breast): 2.73 µM
TGI (MDA-MB-231 breast): 8.19 µM
GI50 (NCI/ADR-RES ovarian): 1.92 µM
TGI (NCI/ADR-RES ovarian): 4.03 µM
GI50 (SK-OV-3 ovarian): 3.07 µM
TGI (SK-OV-3 ovarian): 19.7 µM
GI50 (ACHN renal): 2.9 µM
TGI (ACHN renal): 8.71 µM
GI50 (HCT-116 colon): 1.88 µM
TGI (HCT-116 colon): 3.75 µM
GI50 (SNB-75 CNS): 3.36 µM
TGI (SNB-75 CNS): 17.5 µM
GI50 (HCT-15 colon): 1.93 µM
TGI (HCT-15 colon): 4.14 µM
GI50 (OVCAR-5 ovarian): 3.09 µM
TGI (OVCAR-5 ovarian): 17 µM
GI50 (KM12 colon): 3.15 µM
TGI (KM12 colon): > 100 µM
GI50 (NCI-H226 lung): 3 µM
TGI (NCI-H226 lung): 12.4 µM
GI50 (MOLT-4 leukemia): 3.26 µM
TGI (MOLT-4 leukemia): > 100 µM
